Reference: US5053070A, “Pyrimidine derivatives, preparation processes thereof, herbicide containing the same, and herbicidal compositions containing the same along with other active ingredient” (Mitsui Toatsu Chemicals, Incorporated, priority 1988, dated 1991)
In brackets after ≈: the same amount, converted by molar mass.

What was measured:
green foxtail = test: Upland foliar application test (Test 3); assay type: in vivo; details: 30 g ai/a, foliar spray at 2-3 leaves, 30th day
In short: (§1)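 Plants were grown from seed in upland-field soil in a greenhouse. At the 2-3 leaf stage, an emulsion of each compound, diluted with water, was sprayed on the foliage at a rate equal to 5 l per are with a pressure-operated ULV sprayer. Damage and crop injury were scored on day 30.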

johnsongrass = test: Upland foliar application test (Test 3); assay type: in vivo; details: 30 g ai/a, foliar spray at 2-3 leaves, 30th day
In short: as §1

common lambsquarters = test: Upland foliar application test (Test 3); assay type: in vivo; details: 30 g ai/a, foliar spray at 2-3 leaves, 30th day
In short: as §1

foxtail meadow = test: Upland foliar application test (Test 3); assay type: in vivo; details: 30 g ai/a, foliar spray at 2-3 leaves, 30th day
In short: as §1

large crabgrass = test: Upland foliar application test (Test 3); assay type: in vivo; details: 30 g ai/a, foliar spray at 2-3 leaves, 30th day
In short: as §1

barnyardgrass [1] = test: Upland foliar application test (Test 3); assay type: in vivo; details: 30 g ai/a, foliar spray at 2-3 leaves, 30th day
In short: as §1

redroot pigweed = test: Upland foliar application test (Test 3); assay type: in vivo; details: 30 g ai/a, foliar spray at 2-3 leaves, 30th day
In short: as §1

narrowleaf waterplantain = test: Petri dish test (Test 6); assay type: in vivo; details: 336 h; seeds on filter paper, 25° C., 14 days; read-out: I80 (ppm)
In short: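 Narrowleaf waterplantain seeds placed on filter paper pre-treated with compound in acetone (solvent air-dried) in 9 cm Petri dishes with 10 ml water, grown at 25° C in light. Growth was scored after fourteen days as degree of damage against an untreated group.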

[2] = tested on: ALS (acetolactate syntase); test: ALS enzyme assay (Test 1); assay type: biochemical, pea; details: 1,000 ppm (0.5 mg/0.5 ml)
In short: (§2)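 Partially purified ALS from dark-grown pea and barnyardgrass seedlings incubated 1 h at 30° C with pyruvate, TPP, MgCl2 and FAD. Compounds tested at 1,000 ppm (0.5 mg/0.5 ml). Acetoin formed detected colorimetrically at 525 nm via creatine/α-naphthol, relative to blank and acid-stopped controls.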

peanut = test: Upland soil application test (Test 2), crop injury; assay type: in vivo; details: 30 g ai/a, soil spray before emergence, 30 days later
In short: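 Damage was graded 30 days after treatment by comparing air-dried plant weight with that of plants in untreated pots. Test compound, given as a diluted wettable powder, had been sprayed on the soil surface one day after sowing, before any weeds emerged.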

cotton = test: Upland soil application test (Test 2), crop injury; assay type: in vivo; details: 30 g ai/a, soil spray before emergence, 30 days later
In short: (§3)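 Soil-surface application of water-diluted wettable powder at 10 l per are, made one day after seeding and ahead of weed emergence. Plants stayed in the greenhouse for 30 days; injury was rated by air-dried weight versus untreated pots.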

soybean = test: Upland soil application test (Test 2), crop injury; assay type: in vivo; details: 30 g ai/a, soil spray before emergence, 30 days later
In short: as §3

[3] = tested on: ALS (acetolactate syntase); test: ALS enzyme assay (Test 1); assay type: biochemical, barnyardgrass; details: 1,000 ppm (0.5 mg/0.5 ml)
In short: as §2

bulrush = test: Treatment of soil under submerged condition, pre-emergence (Test 4); assay type: in vivo; details: 30 g ai/a granule, 30 days later
In short: (§4)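 Flooded soil pots; weeds sown/planted, rice transplanted (2 pairs, 2–3 leaf), greenhouse. Granule applied day 1, pre-emergence of weeds. Scored at 30 d for weed damage and rice injury.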

barnyardgrass [4] = test: as above; assay type: in vivo; details: 30 g ai/a granule, 30 days later
In short: as §4

Sagittaria pygmaea = test: as above; assay type: in vivo; details: 30 g ai/a granule, 30 days later
In short: as §4

Structure (SMILES)	Herbicidal effects Green foxtail (green foxtail)	Herbicidal effects Johnsongrass (johnsongrass)	Herbicidal effects Common lambsquarters (common lambsquarters)	Herbicidal effects Foxtail meadow (foxtail meadow)	Herbicidal effects Large crabgrass (large crabgrass)	Herbicidal effects Barnyardgrass (barnyardgrass [1])	Herbicidal effects Redroot pigweed (redroot pigweed)	IC80 (narrowleaf waterplantain) [µg/mL]	Inhibitory activity (%) Pea [2] [%]	Injury Peanut (peanut)	Injury Cotton (cotton)	Injury Soybean (soybean)	Inhibitory activity (%) Barnyardgrass [3] [%]	Herbicidal effects Bulrush (bulrush)	Herbicidal effects Barnyardgrass (barnyardgrass [4])	Herbicidal effects Sagittaria Pygmaea (Sagittaria pygmaea)
COC(=O)c1ccccc1Oc1nc(OC)cc(OC)n1 [A, reference compound]	5 (0-5 (Death))	5 (0-5 (Death))	4 (6-10 (Severe damages))	5 (0-5 (Death))	5 (0-5 (Death))	5 (0-5 (Death))	5 (0-5 (Death))	1 (≈ 3.45 µM)	72	5 (0-5 (Death))	5 (0-5 (Death))	5 (0-5 (Death))	73	5 (0-5 (Death))	5 (0-5 (Death))	4 (6-10 (Severe damages))
COc1cc(OC)nc(Oc2ccccc2C=NOCC=Cc2ccccc2Cl)n1 [Compound No. 27]	5 (0-5 (Death))	5 (0-5 (Death))	4 (6-10 (Severe damages))	5 (0-5 (Death))	5 (0-5 (Death))	4 (6-10 (Severe damages))	5 (0-5 (Death))	2 (≈ 4.7 µM)	12	0 (91-100 (No damages))	0 (91-100 (No damages))	0 (91-100 (No damages))	100	4 (6-10 (Severe damages))	5 (0-5 (Death))	4 (6-10 (Severe damages))
CCc1ccc(C=CCON=Cc2ccccc2Oc2nc(OC)cc(OC)n2)cc1 [compound 37]	5 (0-5 (Death))	5 (0-5 (Death))	4 (6-10 (Severe damages))	5 (0-5 (Death))	5 (0-5 (Death))	4 (6-10 (Severe damages))	4 (6-10 (Severe damages))	2 (≈ 4.77 µM)	0	0 (91-100 (No damages))	0 (91-100 (No damages))	0 (91-100 (No damages))	93	4 (6-10 (Severe damages))	4 (6-10 (Severe damages))	4 (6-10 (Severe damages))
COc1cc(OC)nc(Oc2ccccc2C=NOCc2cccc(C)c2)n1 [compound 20]	5 (0-5 (Death))	5 (0-5 (Death))	4 (6-10 (Severe damages))	5 (0-5 (Death))	5 (0-5 (Death))	5 (0-5 (Death))	5 (0-5 (Death))	100 (≈ 264 µM)	0	0 (91-100 (No damages))	0 (91-100 (No damages))	0 (91-100 (No damages))	58	4 (6-10 (Severe damages))	5 (0-5 (Death))	4 (6-10 (Severe damages))
COc1cc(OC)nc(Oc2ccccc2C=NOCC=Cc2ccc(C)cc2)n1 [compound 36]	5 (0-5 (Death))	5 (0-5 (Death))	4 (6-10 (Severe damages))	5 (0-5 (Death))	5 (0-5 (Death))	5 (0-5 (Death))	4 (6-10 (Severe damages))	4 (≈ 9.87 µM)	0	0 (91-100 (No damages))	0 (91-100 (No damages))	0 (91-100 (No damages))	92	4 (6-10 (Severe damages))	4 (6-10 (Severe damages))	5 (0-5 (Death))
COc1cc(OC)nc(Oc2ccccc2C=NOCC=Cc2ccccc2)n1 [Compound No. 9]	5 (0-5 (Death))	5 (0-5 (Death))	4 (6-10 (Severe damages))	5 (0-5 (Death))	5 (0-5 (Death))	5 (0-5 (Death))	5 (0-5 (Death))	2 (≈ 5.11 µM)	11	0 (91-100 (No damages))	0 (91-100 (No damages))	0 (91-100 (No damages))	95	4 (6-10 (Severe damages))	5 (0-5 (Death))	5 (0-5 (Death))
COc1cc(OC)nc(Oc2ccccc2C=NOCC=Cc2ccc(F)cc2)n1 [compound 29]	4 (6-10 (Severe damages))	5 (0-5 (Death))	4 (6-10 (Severe damages))	4 (6-10 (Severe damages))	4 (6-10 (Severe damages))	5 (0-5 (Death))	5 (0-5 (Death))	8 (≈ 19.5 µM)	11	0 (91-100 (No damages))	0 (91-100 (No damages))	0 (91-100 (No damages))	98	3 (11-40 (Medium damages))	3 (11-40 (Medium damages))	3 (11-40 (Medium damages))
